Results published in patent publication US20060035844A1, “Preventive or remedy for diseases caused by hyperglycemia” (priority 2002, published 2006).

Experiments:
[1] = tested on: male Zucker fa/fa rats; experiment: Effects after mixed-carbohydrate loading with or without sucrose (plasma glucose AUC 0-3 h); type: in vivo, rat; conditions: Zucker fatty fa/fa rats, oral; Example 1 0.5 mg/kg, Example 2 0.3 mg/kg, acarbose 5 mg/kg, miglitol 5 mg/kg, phlorizin 100 mg/kg; 1.6 g glucose/kg load
Source text: Next, in order to investigate whether effects caused by fructose ingestion are present, the present inventors have performed the following test using Zucker fatty fa/fa rats, model animals of type-2 diabetes. […] In the fructose-containing diet group, mixed carbohydrate (starch: sucrose: lactose=6:3:1), which corresponds approximately to carbohydrates in regular diets, was loaded. (e.g., see the following Reference 35). On the other hand, in the fructose-free diet group, mixed carbohydrate substituted the corresponding amount of starch for the amount of glucose contained within sucrose, was loaded, because sucrose is a disaccharide and is digested to glucose and fructose in the gastrointestinal tract. Then, comparison study of each diet was performed.
The FIG. 1 is a graph showing hypoglycemic effects of each drug caused by fructose ingestion.
Effects of SGLT1 Inhibitors, an SGLT Inhibitor and α-glucosidase Inhibitors After Mixed-Carbohydrate Containing Sucrose Loading
Immediately after the compound administration, mixed-carbohydrate with sucrose (starch:sucrose:lactose=6:3:1) or without sucrose (starch:lactose=7.5:1) was loaded at a dose of 1.6 g glucose/kg. The blood was collected immediately before and after the administration with the time course (0, 0.5, 1, 2, 3 hours). The plasma was collected to quantify the plasma glucose concentration. The area under the curve of plasma glucose concentration from 0 to 3 hours was calculated by the trapezoidal method. Statistical analysis was T test between existence and nonexistence of sucrose in mixed-carbohydrate solution on each compound.

[2] = biological target: T1, rat SGLT1 (Rattus norvegicus, UniProt P53790); experiment: Assay for inhibitory effects on rat SGLT1 activity (uptake of methyl-α-D-glucopyranoside in CrS1 cells); type: cell-based; conditions: CHO-K1 cells stably expressing rat SGLT1 (CrS1), 1 mM α-MG, 37° C., 1 hour; read-out: IC50 value, inhibition of uptake of methyl-α-D-glucopyranoside
T1 construct: expressed in transfected cells
T1 sequence (P53790 1-665): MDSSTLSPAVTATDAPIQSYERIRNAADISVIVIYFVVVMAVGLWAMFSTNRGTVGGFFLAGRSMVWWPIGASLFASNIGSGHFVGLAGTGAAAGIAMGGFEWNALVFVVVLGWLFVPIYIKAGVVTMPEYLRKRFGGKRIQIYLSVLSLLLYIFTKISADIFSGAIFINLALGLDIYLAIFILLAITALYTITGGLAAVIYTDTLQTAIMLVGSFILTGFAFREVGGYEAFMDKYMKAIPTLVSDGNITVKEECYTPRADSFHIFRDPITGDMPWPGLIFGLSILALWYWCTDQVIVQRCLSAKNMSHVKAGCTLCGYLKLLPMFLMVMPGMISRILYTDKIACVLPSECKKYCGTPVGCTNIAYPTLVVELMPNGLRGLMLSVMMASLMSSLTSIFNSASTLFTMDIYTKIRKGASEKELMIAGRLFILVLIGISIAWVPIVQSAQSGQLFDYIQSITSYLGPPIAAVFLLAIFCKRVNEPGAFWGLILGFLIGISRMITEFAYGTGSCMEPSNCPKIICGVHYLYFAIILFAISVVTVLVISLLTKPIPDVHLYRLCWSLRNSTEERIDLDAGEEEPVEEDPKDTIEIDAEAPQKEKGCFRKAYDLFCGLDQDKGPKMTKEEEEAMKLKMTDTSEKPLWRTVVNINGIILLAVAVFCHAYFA
Protocol: A test compound was dissolved in dimethyl sulfoxide, and then appropriately diluted with distilled water. The test compound solution was added to the uptake buffer containing 1 mM α-MG, and designated as a measurement buffer. For the control group, the measurement buffer without any test compound was prepared. […] After repeating the same treatment, the pre-treatment buffer was removed. To each well was added 75 μL of the measurement buffer or the basal uptake buffer was added and incubated at 37° C. for 1 hour. After removing the measurement buffer, cells were washed twice with 180 μL per well of the washing buffer (the basal uptake buffer containing 10 mM non-labeled α-MG). The cells were solubilized by 75 μL per well of 0.2 mol/L sodium hydroxide. The cell lysates were transferred into PicoPlates (Packard), and then added 150 μL of MicroScint-40 (Packard) and mixed. Radioactivity was measured by means of micro-scintillation counter TopCount (Packard).

[3] = tested on: male Wistar rats; experiment: Effects of an SGLT1 inhibitor on absorption of fructose (fructose tolerance test, residual fructose in the gastrointestinal tract); type: in vivo, rat
Protocol: Effects of an SGLT1 Inhibitor on Absorption of Fructose
Immediately after the administration, 0.2 g/kg of fructose was loaded. After 30 minutes, rats were sacrificed with exsanguination under ether anesthesia and then the contents of stomach and small intestine were collected with 10 mL ice-cold saline. Fructose concentration was measured by fructose assay kit (D-glucose/D-Fructose; Roche diagnostics) and calculated residual fructose (% of dose) in the gastrointestinal tract. Statistical analysis between control and treated groups are calculated using T test.

| Compound | Reduction of plasma glucose concentration after sucrose-containing diet compared with sucrose-free diet (in words) [1] | IC50 [2] [nM] | Residual fructose (% of dose) in the gastrointestinal tract ([3]; 0.3 mg/kg oral, 0.2 g/kg fructose load, after 30 minutes, stomach and small intestine contents, control 11.8 ± 2.1) [%] | Inhibitory effect on absorbing fructose (in words) ([3]; fructose tolerance test, residual fructose in the gastrointestinal tract) |
| --- | --- | --- | --- | --- |
| OCCN1C[C@H](O)[C@@H](O)[C@H](O)[C@H]1CO [miglitol, reference compound] | did not reduce plasma glucose concentration | – | – | – |
| Cc1cc(O)cc(O[C@@H]2O[C@H](CO)[C@@H](O)[C@H](O)[C@H]2O)c1Cc1ccc(NC(=O)NCc2cccnc2)cc1 [Example 1, 5-Hydroxy-3-methyl-2-{4-[3-(3-pyridylmethyl)ureido]benzyl}-phenyl β-D-glucopyranoside] | significantly reduced plasma glucose concentration | 139 | – | – |
| O=C(CCc1ccc(O)cc1)c1c(O)cc(O)cc1O[C@@H]1O[C@H](CO)[C@@H](O)[C@H](O)[C@H]1O [Phlorizin, reference compound] | did not reduce plasma glucose concentration | – | – | – |
| Cc1cc(OCCNC(=N)N)ccc1Cc1c(O[C@@H]2O[C@H](CO)[C@@H](O)[C@H](O)[C@H]2O)n[nH]c1C(C)C [Example 2, 3-(β-D-Glucopyranosyloxy)-4-{[4-(2-guanidinoethoxy)-2-methylphenyl]methyl}-5-isopropyl-1H-pyrazole] | significantly reduced plasma glucose concentration | 38.1 | 12.2 ± 2.6 | substantially show no inhibitory effect on absorbing fructose |
